From patent US6844313B1, “Composition containing a meiosis activating substance” (Novo Nordisk A/S, priority 1999, dated 2005) come the findings set out here.

A word on the solubility: it is how much of the substance goes into solution per volume.

Data set [1] can be described thus: Solubility of FF-MAS in water, ethanol and ethanol/water. It counts as physicochemical. The procedure: The solubility of a preferred MAS, i.e., FF-MAS, in water is very low, i.e., approximately 20 picogram/ml (corresponding to 2×10^−5 μg/ml), and in ethanol the solubility is substantially higher, i.e., approximately 4 mg/ml. According to our preliminary investigations, the highest solubility of FF-MAS in a mixture of ethanol and water (1:2.5) is approximately 0.4 mg/ml.

Data set [2] is described as follows: Solubility and appearance of FF-MAS in water/ethanol containing HSA before evaporation. The settings on record: Example 3; ethanol/water mixture containing HSA. It counts as physicochemical. The procedure: Prepare a saturated ethanolic solution of FF-MAS. Blend with an aqueous solution of the additive in the ration 1:2,5. By visual inspection control that surplus FF-MAS is available in the solution. Rotate the solution for 24 hours at room temperature. Filter the solution through 0,22 […] filter, determine the content of FF-MAS by HPLC and calculate the solubility. Transfer 350μl to 4-well dish and evaporate to dryness at room temperature. Add 500μl MEM AL- PHA medium (Gibcobal). If a clear solution is obtained within half an hour, the composition is tested on oocytes obtained from immature female mice. % GVB obtained is at least 50%, preferable 80%, vide example 1.
In this example, 3 products were prepared. Referring to the table below, the stock solution of FF-MAS used for product 1, 2, and 3 contained 50, 500 and 3330 μg/ml, respectively. For each of the products, the stock solution of HSA contained 20% HSA. The amount of said stock solutions used is stated in the table. For example, for product 1, 400 μl of the FF-MAS stock solution was mixed with 1000 μl of the HSA stock solution. After mixing of these stock solutions, the solutions were clear, and no precipitation was observed therein. After mixing, the amount thereof stated in the table was transferred to 4-well multi-dishes (Nuclon, Denmark). […]

Values after ≈ are worked out from the molar mass of the structure shown. Read-outs that look alike come from different tables or passages of the source.

Regarding `CC(C)=CCC[C@@H](C)[C@H]1CC=C2C3=C(CC[C@@]21C)[C@@]1(C)CC[C@H](O)C(C)(C)[C@@H]1CC3` [FF-MAS, 4,4-dimethyl-5 α-cholesta-8,14,24-triene-3β-ol], the solubility in data set [1] (ethanol, organic solvent or mixture, read-out: solubility in ethanol) is roughly 4 mg/mL (≈ 9.74 mM); in data set [1] (ethanol/water (1:2.5), aqueous with cosolvent or surfactant or cyclodextrin, ethanol and water (1:2.5), no additive, preliminary investigations, read-out: highest solubility in a mixture of ethanol and water (1:2.5)), roughly 0.4 mg/mL (≈ 0.974 mM). Also, the solubility in water result in data set [1] (water) is given as “approximately 20 picogram/ml”. For the same compound, the “highest concentration of FF-MAS dissolved” value in data set [2] is 0.95 mg/mL.
